The record followed here is ChEMBL document CHEMBL5143692, “Design, synthesis and conformation-activity relationship analysis of LNA/BNA-type 5'-O-aminoribosyluridine as MraY inhibitors” (Bioorg Med Chem, 2022).

The structures appear in SMILES notation. In brackets after ≈: the same amount, converted by molar mass.

For assay [1], the target named is T1, Phospho-N-acetylmuramoyl-pentapeptide-transferase (Staphylococcus aureus, UniProt P0C1R8).
T1 sequence (P0C1R8 whole entry): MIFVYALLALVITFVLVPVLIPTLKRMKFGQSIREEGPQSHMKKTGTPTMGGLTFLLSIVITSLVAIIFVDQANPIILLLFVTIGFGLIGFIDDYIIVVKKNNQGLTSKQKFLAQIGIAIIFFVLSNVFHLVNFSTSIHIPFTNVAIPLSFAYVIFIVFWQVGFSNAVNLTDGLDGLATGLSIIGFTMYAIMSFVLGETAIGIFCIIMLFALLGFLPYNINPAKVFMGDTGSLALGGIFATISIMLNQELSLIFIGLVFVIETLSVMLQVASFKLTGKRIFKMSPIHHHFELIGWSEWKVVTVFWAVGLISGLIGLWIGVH
Put plainly: Inhibition of Staphylococcus aureus MraY assessed as reduction of dansylated lipid I formation using UDP-MurNAcdansylpentapeptide as substrate incubated for 3 to 4 hrs by fluorescence based analysis.

Assay [2] relates to Mycobacteroides abscessus. The experiment in a line: Antibacterial activity against Mycobacterium abscessus ATCC 19977 assessed as inhibition of bacterial growth incubated for 5 days by microplate reader analysis. The assay is classed as functional. Particulars: ATCC 19977, 120 h, time 5 day.

For orientation: IC50 means the concentration that inhibits the measured activity by half. One may read the MIC50 as an inhibitory concentration at the 50% level, which refers to growth in some studies and to a panel of isolates in others. On to `CC[C@H](O[C@@H]1O[C@H](CN)[C@@H](O)[C@H]1O)[C@@]12CO[C@@H]([C@H](n3ccc(=O)[nH]c3=O)O1)[C@@H]2O`, for which, in assay [1], the IC50 is 4.5 µM. Also, the MIC50 in assay [2] was 32 µg/mL (≈ 77 µM).
As to `NC[C@H]1O[C@@H](OC[C@@]23CO[C@@H]([C@H](n4ccc(=O)[nH]c4=O)O2)[C@@H]3O)[C@H](O)[C@@H]1O`, the IC50 in assay [1] is 46 µM. Moreover, in assay [2], the MIC50 is greater than 32 µg/mL.
With `C#C[C@H](O[C@@H]1O[C@H](CN)[C@@H](O)[C@H]1O)[C@@]12CO[C@@H]([C@H](n3ccc(=O)[nH]c3=O)O1)[C@@H]2O`, the IC50 in assay [1] was found to be 24 µM. The MIC50 in assay [2] was greater than 32 µg/mL.
Take `NC[C@H]1O[C@@H](O[C@@H](C#Cc2ccccc2)[C@H]2O[C@@H](n3ccc(=O)[nH]c3=O)[C@H](O)[C@@H]2O)[C@H](O)[C@@H]1O`: the IC50 in assay [1] stood at 2.3 µM. For the same compound, in assay [2], the MIC50 was greater than 32 µg/mL.
Turning to `NC[C@H]1O[C@@H](O[C@@H](C#Cc2ccccc2)[C@@]23CO[C@@H]([C@H](n4ccc(=O)[nH]c4=O)O2)[C@@H]3O)[C@H](O)[C@@H]1O`, the IC50 in assay [1] turned out to be 37 µM. In addition, the MIC50 in assay [2] was greater than 32 µg/mL.
With `C#C[C@H](O[C@@H]1O[C@H](CN)[C@@H](O)[C@H]1O)[C@H]1O[C@@H](n2ccc(=O)[nH]c2=O)[C@H](O)[C@@H]1O`, in assay [1], the IC50 was 20 µM. Further, the MIC50 in assay [2] is greater than 32 µg/mL.
